Consider two compounds from ChEMBL document CHEMBL4699598, “Discovery of Novel Substituted N-(4-Amino-2-chlorophenyl)-5-chloro-2-hydroxybenzamide Analogues as Potent Human Adenovirus Inhibitors” (J Med Chem, 2020).

The source made the active and inactive calls. No cut-off for these calls is given here.

Data set [1] deals with Human adenovirus 5. Put plainly: Antiviral activity against wild-type Human adenovirus 5 infected in human A549 cells assessed as inhibition of viral DNA replication by measuring number of viral DNA copies at 12 uM after 24 hrs by RT-qPCR analysis (reference value: 100 +/- 0.16 %). The class given is functional. Also on record: scale not given: the % may be the effect or the level left. (In general: Real-time PCR tracks product formation cycle by cycle.)

Data set [2] is described as follows: Selectivity index, ratio of CC50 for cytotoxicity against human A549 cells assessed as reduction in cell viability incubated for 48 hrs by alamarBlue assay to IC50 for antiviral activity against Human adenovirus 5 infected in 293beta5 cells assessed as inhibition of plaque formation incubated for 7 days by GFP reporter gene assay. The class given is toxicity, cell-based. The following applies: read-out: Ratio CC50/IC50. (In general: Resazurin is reduced to fluorescent resorufin, in cell work by metabolically active cells.)

The subject of data set [3] is Human adenovirus 5. Put plainly: Antiviral activity against Human adenovirus 5 infected in 293beta5 cells assessed as inhibition of virus infection at 10 fold of IC50 measured at 0 min by GFP reporter gene assay relative to control. The class given is functional, HEK293. In general terms: Reporter assays use an easily measured gene product as a stand-in for the process of interest.

The test system of data set [4] is Human adenovirus 5. Put plainly: Antiviral activity against wild-type Human adenovirus 5 infected in human A549 cells assessed as inhibition of virus entry incubated for 48 hrs by fluorescence assay. The following applies: Human mastadenovirus C, A549, 48 h. The class given is functional, organism-based.
Data set [5] in a line: Cytotoxicity against human A549 cells assessed as reduction in cell viability incubated for 48 hrs by alamarBlue assay. The class given is cell-based.
The test system of data set [6] is Human adenovirus 5. Put plainly: Antiviral activity against wild-type Human adenovirus 5 infected in human A549 cells assessed as inhibition of viral entry by measuring nuclear associated viral genome level at 10 fold IC50 incubated for 45 mins by RT-PCR analysis (reference value: 100 +/- 1.07 %). The class given is functional. On the set-up: scale not given: the % may be the effect or the level left. The following applies: 0.75 h.

For another data set, the system named is Human betaherpesvirus 5. Kind of data set: Antiviral activity against human cytomegalovirus infected in HFF cells assessed as inhibition of viral replication by measuring number of viral DNA copies at 12 uM incubated for 72 hrs by RT-PCR analysis (reference value: 100 +/- 25.56 %). On the set-up: scale not given: the % may be the effect or the level left. The class given is functional.

For data set [7], the system named is Human adenovirus 5. Kind of data set: Antiviral activity against WT-Human adenovirus 5 infected in A549 cells assessed as fold reduction in virus yield at 10 fold of IC50 after 48 hrs endpoint dilution method. The class given is functional.
Data set [8] deals with Human adenovirus 5. Put plainly: Antiviral activity against GFP-fused Human adenovirus 5 infected in 293beta5 cells assessed as inhibition of plaque formation incubated for 7 days by GFP reporter gene assay. The class given is functional, organism-based. The following applies: Human mastadenovirus C, HEK293, 168 h.
Data set [9] concerns Human adenovirus 5. Put plainly: Antiviral activity against Human adenovirus 5 infected in 293beta5 cells assessed as inhibition of virus infection at 10 times IC50 measured after 10 to 20 mins by GFP reporter gene assay relative to control. The class given is functional, organism-based. As to conditions: HEK293, time min 10-20.
In data set [10] the test system is Human adenovirus 5. Put plainly: Antiviral activity against wild-type Human adenovirus 5 infected in human A549 cells assessed as inhibition of viral DNA replication by measuring number of viral DNA copies at 9.3 uM after 24 hrs by RT-qPCR analysis (reference value: 100 +/- 0.16 %). The class given is functional. Also on record: scale not given: the % may be the effect or the level left.

The next data set relates to Cytomegalovirus. Put plainly: Antiviral activity against human cytomegalovirus infected in HFF cells assessed as decrease in number of viral DNA copies at 9.3 uM incubated for 72 hrs by RT-PCR analysis (reference value: 100 +/- 25.56 %). The class given is functional. Also on record: scale not given: the % may be the effect or the level left.

The term IC50 denotes the concentration that inhibits the measured activity by half. Usually CC50 stands for the concentration that lowers cell viability or growth by half.

`CC(CCO)Nc1ccc(NC(=O)c2cc(Cl)ccc2O)c(Cl)c1` (stereo not drawn): the Activity in the data set on Human adenovirus 5 [1] came to 80.94%; with Human adenovirus 5 [6], 98.96%; in the data set with Human betaherpesvirus 5 it was 22.47%. Besides, the selectivity ratio at 48 h in data set [2] was found to be 167. In addition, the “inhibition (INH)” value in the data set with Human adenovirus 5 [3] is reported as below 50%. Moreover, the IC50 came to 30.8 µM in the data set on Human adenovirus 5 [4] and 1.2 µM in the data set on Human adenovirus 5 [8]. Also, the CC50 at 48 h in [5] was found to be 200 µM. Besides, the “fold change (FC)” value in the data set with Human adenovirus 5 [7] is 9.3.

Take `CC(C)(C)OC(=O)N1CCC(CNc2ccc(NC(=O)c3cc(Cl)ccc3O)c(Cl)c2)CC1`: in data set [2], the selectivity ratio at 48 h is 102. Further, the inhibition entry in the data set with Human adenovirus 5 [9] is “inactive”. The IC50 with Human adenovirus 5 [4] is below 3.13 µM; in the data set with Human adenovirus 5 [8], 0.93 µM. For the same compound, in [5], the CC50 at 48 h came to 92 µM. For the same compound, the Activity with Human adenovirus 5 [6] amounted to 59.54%; in the data set on Human adenovirus 5 [10] it was 2.49%; in the data set on Cytomegalovirus it was 15.58%. The “fold change (FC)” value in the data set on Human adenovirus 5 [7] was determined as 232.
